Test results taken from PMC6493727, “FluoroCellTrack: An algorithm for automated analysis of high-throughput droplet microfluidic data” (PLoS ONE, 2019).

Tested on: OPM-2 cells
Experiment: Dose response of single OPM-2 cells to Bortezomib, live/dead staining in a droplet trapping array
Format: cell-based
Conditions: for Dead Cells / Live Cells: Calcein AM/EthD-1 staining; for Dead Cells / Live Cells / Overlapping Cells: FluoroCellTrack automated count, n=787 droplets
Excerpt: First, a mask was generated by detecting differently colored cells from the input image, Fig 3A. This mask (Fig 3B) was overlapped with the input image and was subjected to edge detection, dilation and erosion to yield Fig 3C, which was then segmented through random walker algorithm to detect and distinguish attached cells. Random walker segmentation algorithm was used over traditional watershed algorithm due to its highly precise probabilistic interpretation of local maxima (Fig 3D). The distinguished contours from this image were then filtered for area, where cellular area equal to or greater than 130 pixels were outlined and labeled as shown in Fig 3E. 130 was selected as the thresholding value due to the mean cellular area being ~140 pixels. This step was essential to exclude debris to eliminate false positives. However, in case of co-culture platforms, where primary cells are of the same size as that of the secondary cells, or in systems where the debris is of the same size as that of the cells, specific cellular or organelle staining can be used to distinguish these features and the extensive palette used in computer vision aids in easy detection of such features. […] For instance, similar features with slight deviations in shape, size and orientation were easily detected by the droplet/contour detection steps of FluoroCellTrack but would need a repository of many templates while using the template matching feature, showing that the latter can be highly uneconomical. The broad palette of colors in computer vision can be exploited here to detect any fluorescent cell and as an example here, the contour detection step was implemented to quantify actual cellular viability data as shown in Fig 4. Lower [B, G, R]: [0, 51, 0] and upper [B, G, R]: [153, 255, 153] boundaries were given for live cells and, dead cells were identified with the lower and upper color boundaries at; [153, 153, 255] while overlapping cells were identified with lower and upper color boundaries of [0, 51, 51]; [153, 255, 255]. Cells with overlapping signals in both the green and red filter sets represent cells with compromised plasma membranes (indicative of a dead cell), but with remaining esterase activity to react with the Calcein AM. These cells were noted as ‘dying’ cells to distinguish them from the clean live and dead signals using the other contour boundaries. The contours with specific colors were detected from the input images, where the positively detected live, dead and overlapping cells with an area equal to or greater than 130 pixels were outlined with distinct colors: live cells in red, dead cells in blue and overlapping cells in purple (Fig 4). The outlined cell-center map was overlaid with the droplet center map and scanned to fit within 25<R<50-micron values (denoted by white arrows), to account for single/multiple cell encapsulation information as shown in the output data of Fig 4. This step was essential to calculate the single-cell encapsulation efficiency and to eliminate cells that were freely floating in the device, thus including cells that were only inside the droplets. Additionally, the user can easily eliminate the droplet detection step to use this contour detection as a stand-alone platform (similar to ImageJ and Cell Profiler) to detect and quantify properties of fluorescent cells from other microfluidic or non-microfluidic applications. The advantage of FluoroCellTrack over current software tools like ImageJ and Cell Profiler lies in the fact that the former can be employed in non-droplet microfluidic platforms in addition to droplet microfluidics, but the latter cannot be used to quantify high-throughput droplet microfluidic data.
An important application of any automated platform is to count cells and sort them based on their fluorescent response. As an example, the dose-dependent single cell response of OPM-2 cells to a clinical inhibitor, Bortezomib was observed. […]

Structure (SMILES): CC(C)C[C@H](NC(=O)[C@H](Cc1ccccc1)NC(=O)c1cnccn1)B(O)O [BTZ, Bortezomib]
- Dead Cells (1 nM BTZ, Day 1 (24 h)): 5
- Live Cells (1 nM BTZ, Day 1 (24 h)): 311
- Overlapping Cells (1 nM BTZ, Day 1 (24 h), overlapping = dying cells (green and red signal)): 28
- Dead Cells (1 nM BTZ, Day 2 (48 h)): 10
- Live Cells (1 nM BTZ, Day 2 (48 h)): 53
- Overlapping Cells (1 nM BTZ, Day 2 (48 h), overlapping = dying cells): 45
- Dead Cells (1 nM BTZ, Day 3 (72 h)): 53
- Live Cells (1 nM BTZ, Day 3 (72 h)): 140
- Overlapping Cells (1 nM BTZ, Day 3 (72 h), overlapping = dying cells): 206
- viability of single OPM-2 cells (1 nM, 10 nM and 100 nM, 24 h, 48 h and 72 h incubation): decrease in viability at increasing concentrations and incubation times
- Dead Cells (10 nM BTZ, Day 1 (24 h)): 5
- Live Cells (10 nM BTZ, Day 1 (24 h)): 49
- Overlapping Cells (10 nM BTZ, Day 1 (24 h), overlapping = dying cells): 38
- Dead Cells (10 nM BTZ, Day 2 (48 h)): 67
- Live Cells (10 nM BTZ, Day 2 (48 h)): 15
- Overlapping Cells (10 nM BTZ, Day 2 (48 h), overlapping = dying cells): 113
- Dead Cells (10 nM BTZ, Day 3 (72 h)): 92
- Live Cells (10 nM BTZ, Day 3 (72 h)): 0
- Overlapping Cells (10 nM BTZ, Day 3 (72 h), overlapping = dying cells): 107
- Dead Cells (100 nM BTZ, Day 1 (24 h)): 75
- Live Cells (100 nM BTZ, Day 1 (24 h)): 0
- Overlapping Cells (100 nM BTZ, Day 1 (24 h), overlapping = dying cells): 100
- Dead Cells (100 nM BTZ, Day 2 (48 h)): 320
- Live Cells (100 nM BTZ, Day 2 (48 h)): 3
- Overlapping Cells (100 nM BTZ, Day 2 (48 h), overlapping = dying cells): 149
- Dead Cells (100 nM BTZ, Day 3 (72 h)): 108
- Live Cells (100 nM BTZ, Day 3 (72 h)): 0
- Overlapping Cells (100 nM BTZ, Day 3 (72 h), overlapping = dying cells): 17
